Where a SMILES comes first, the peptide text is derived from it. [ ]: non-standard residue; d: D form.
Experiments:
[1] = system: HEK-Bcan cells; experiment: Flow cytometry blocking study with 50× molar excess of unlabeled peptide; assay type: cell-based, human; conditions: fluorescein-conjugated peptide 1 μM
Procedure: Cells were washed once with PBS and then, treated with 1 mL of 2.5 mM EDTA to dissociate the cells. The EDTA was removed by centrifugation, and PBS supplemented with 10% FBS was added to create a single-cell suspension. All peptide stocks were dissolved in DMSO, and stored at −20° C. in the dark. Cells were incubated with each peptide (at the desired final concentration, between 1-10 μM) for 3 hrs at 37° C. in the dark under constant rotation. After incubation, cells were washed 3× with PBS with 10% FBS (by centrifugation at 7000 rpm for 3 mins each). Then, cells were resuspended in 3.7% formaldehyde for fixation, and finally washed once with PBS. Cells were evaluated for peptide uptake (mean fluorescence intensity) by flow cytometry (10,000-20,000 events).
For blocking studies, cells were dissociated as described above and resuspended in cold PBS with 10% FBS. Cells were then incubated with a 50× molar excess of unlabeled peptide for 10 mins on ice, before adding the corresponding FITC-labeled peptide at a final concentration of 1 μM and incubated for 1.5 hrs on ice. Cells were then washed with cold PBS with 10% FBS, fixed and analyzed by flow cytometry.

[2] = system: BT188 glioma stem cells; experiment: Peptide uptake in BT188 (BΔg-high) versus BT145 (BΔg-low) glioma stem cells, fluorescence imaging; assay type: cell-based, human; conditions: fluorescein-labeled peptides, 5 μM
Text: FIGS. 3A-I. Peptide characterization for BΔg specificity in glioma stem cells. (a) Table summary listing the properties of 7 peptides (composed of 8 D-amino acid residues, SEQ ID NOs:3-9, in order of appearance) that were isolated from the OBOC library screen. MW=molecular weight; KD=Kyte-Doolittle scale for amino acid hydropathy (positive scores indicate […]) (Kyte and Doolittle, J. Mol. Biol. 157, 105-132 (1982)). (b) Chemical structure showing the linkage between the peptide and FITC. (c) Western blot analysis showing the level of BΔg and Bcan in human embryo kidney (HEK) cells, and Bcan-overexpressing HEK cells (HEK-Bcan). […] Each group was normalized to a no-blocking (vehicle) control. Statistics were performed using multiple t-tests, and significance was measured in comparison to each vehicle control (p<0.0001). (e) Uptake of fluorescein-labeled BTP-2, 7, 8, 9, and 10 (at 5 μM conc.) in BT188 (BΔg-high) or BT145 (BΔg-low) glioma stem cells (GSCs). Western blot analysis on the top right confirms the BΔg expression level. […] Statistics were performed using the two-way ANOVA and Tukey's Multiple Comparison test. (f) Chemical structure showing the linkage between the peptide and Cy5.5 dye. (g) Western blot analysis showing the expression of BΔg in GBM-6 cells, with negligible BΔg level in astrocytes or neural progenitor cells (NPC). (h) Graph showing the cell uptake ranking of the top 3 peptide candidates, BTP-7, 8 and 9 in GBM-6 cells as determined by flow cytometry analysis with s.d. error bars (5 μM conc.; nevents=20,000 cells; nexperiment=5). Each group is normalized to the control scramble peptide (Scr-8). Statistics were performed using the one-way ANOVA and Tukey's Multiple Comparison test (significance were measured in comparison to the Scr-8 control). (i) Bar graph showing the uptake of BTP-7, 8 and 9 in GBM-6 cells and NPC with 95% confidence interval error bars (1 μM conc.; nevents=20,000 cells). Statistics were performed using the two-way ANOVA and Sidak's Multiple Comparison test.

CC[C@@H](C)[C@@H](NC(=O)[C@H](N)[C@H](C)O)C(=O)N[C@H](CCCNC(=N)N)C(=O)N[C@H](CCCCN)C(=O)N[C@H](CC(C)C)C(=O)N[C@@H](C(=O)N[C@H](CCCNC(=N)N)C(=O)N[C@H](Cc1c[nH]cn1)C(N)=O)C(C)C [BTP-8] (H-[dT][dI][dR][dK][dL][dV][dR][dH]-NH2; N-terminus and C-terminus assumed)
uptake in HEK-Bcan cells in the presence of the blocking peptide [1]: reduced uptake | size of the difference in uptake between BT188 and BT145 GSCs (ranking) [2]: largest and most significant difference | uptake in BT188 GSCs compared with BT145 GSCs [2]: greater uptake
